Data: US8017767B2, “Sucralose composition” (Tate & Lyle Public Limited Company, priority 2000, dated 2011)

Test: Accelerated stability test (50° C.) with pH stability test of sucralose sample solution
Format: physicochemical
Settings: for Days to pH Failure / Days to pH Failure (Final Product Moisture Content) / Days to pH Failure (Initial Moisture Content) / Ph Stability: 50° C.; for Days to pH Failure: WHIRLPAK polyethylene bags, failure = pH drop ≧1.0; for Initial pH difference: sample solution vs pH-adjusted water at time zero; for Initial pH: sample solution (5 g in 50 ml pH-adjusted water) at time zero; for Days to pH Failure (Final Product Moisture Content): final dried product; for Days to pH Failure (Final Product Moisture Content) / Days to pH Failure (Initial Moisture Content): Example 3; for Days to pH Failure (Initial Moisture Content): partially dried product at intermediate (initial) moisture content; for stability at intermediate moisture contents compared with final moisture levels: crystallized with no pH control, intermediate moisture 3 to 5% vs final 0.05, 0.11, 0.21%
Text: Label seven 6 oz. and seven 18 oz. WHIRLPAK® polyethylene bags with indelible marker for each batch being tested for stability. Accurately weigh 25 g±0.01 g of sucralose into each 6 oz. WHIRLPAK® polyethylene bag. Heat or impulse seal the 6 oz. bag to ensure air tightness. Cut off any excess polyethylene at the top of the bag above the seal. Place the 6 oz. sealed bag into the 18 oz. bag and heat or impulse seal the 18 oz. bag to ensure air tightness. Roll down the top of the 18 oz. bag above the seal and bend the metal ties to form hooks.
Place the prepared bags into an oven stabilized at 50° C.±0.5° C. by hanging them from racks by the bag hooks. The bags must be freely suspended and not touch anything. Record the time samples are placed into the oven.
The pH stability test is conducted on the sucralose at time zero (the day the samples are placed in the oven, before the sucralose is exposed to elevated temperature) and every 24 hours until the batch being tested fails the test.
Place approximately 100 ml of deionized water into a 150 ml beaker. Using 0.1 N hydrochloric acid and/or 0.1 N sodium hydroxide, adjust the pH of the water to be between 5.8 and 6.0. Record the pH reading.
Accurately weigh 5 g±0.001 g of the product to be tested and transfer it to a 50 ml volumetric flask. Dissolve and bring to the mark by adding pH-adjusted water. If the sample to be tested is one that has been exposed to heat, remove one bag of the batch being tested from the oven and allow it to cool to room temperature before opening and sampling.
Pour the solution into a 100 ml beaker containing a stir bar, and slowly stir the solution on a magnetic stirrer. Immerse the pH electrode in the sample, allow the pH reading to stabilize, and record the pH reading of the sample. If no pH drop is observed after all the bags have been tested, the experiment is void and the test must repeated with a larger number of bags.
Record (to one decimal place) the pH of both the pH-adjusted water used and the sample sucralose solution. Subtract the pH of the […]. Report the result as (−) for a pH drop and (+) for a pH gain, e.g.:
The sample fails the test if there is a pH drop of 1.0 pH unit or more. The pH stability of the batch is defined as the number of days until the pH drop between the sample solution and that of the pH adjusted water is ≧1.0.
Samples of sucralose were tested for stability using the above procedures, but using bags of different moisture permeability. All other experimental details were the same. The TYVEK®/polyethylene bags are permeable; the WHIRLPAK® bags are less permeable. The A8080 bag consists of aluminum foil laminated to low-density polyethylene, which makes it very impermeable to moisture.

[1] = Example 2, pH at crystallizer varied
[2] = Example 1, sodium acetate in mother liquor varied
[3] = (−) pH drop, (+) pH gain, Example 1
[4] = package A8080 (aluminum foil laminated to low-density polyethylene), impermeable
[5] = package FF 91 TYVEK/Polyethylene, very permeable

| Days to pH Failure [1] [Days] | Initial pH difference [1] | Days to pH Failure [2] [Days] | Initial pH [2] | Initial pH difference [3] | SMILES | further results |
| --- | --- | --- | --- | --- | --- | --- |
| 7 | +0.43 | – | – | – | OC[C@H]1O[C@H](O[C@]2(CCl)O[C@H](CCl)[C@@H](O)[C@@H]2O)[C@H](O)[C@@H](O)[C@H]1Cl [Sample 46, 4,1′,6′-trichloro-4,1′,6′-trideoxy-galactosucrose] | – |
| – | – | 6 | 5.64 | −0.28 | OC[C@H]1O[C@H](O[C@]2(CCl)O[C@H](CCl)[C@@H](O)[C@@H]2O)[C@H](O)[C@@H](O)[C@H]1Cl [Sample 4, 4,1′,6′-trichloro-4,1′,6′-trideoxy-galactosucrose] | – |
| 7 | +0.40 | – | – | – | OC[C@H]1O[C@H](O[C@]2(CCl)O[C@H](CCl)[C@@H](O)[C@@H]2O)[C@H](O)[C@@H](O)[C@H]1Cl [Sample 40, 4,1′,6′-trichloro-4,1′,6′-trideoxy-galactosucrose] | Days to pH Failure (Final Product Moisture Content): 7 Days; Days to pH Failure (Initial Moisture Content): 13 Days |
| – | – | 6 | 6.09 | +0.08 | OC[C@H]1O[C@H](O[C@]2(CCl)O[C@H](CCl)[C@@H](O)[C@@H]2O)[C@H](O)[C@@H](O)[C@H]1Cl [Sample 20, 4,1′,6′-trichloro-4,1′,6′-trideoxy-galactosucrose] | – |
| – | – | 7 | 6.19 | +0.23 | OC[C@H]1O[C@H](O[C@]2(CCl)O[C@H](CCl)[C@@H](O)[C@@H]2O)[C@H](O)[C@@H](O)[C@H]1Cl [Sample 9, 4,1′,6′-trichloro-4,1′,6′-trideoxy-galactosucrose] | – |
| – | – | 6 | 6.03 | +0.10 | OC[C@H]1O[C@H](O[C@]2(CCl)O[C@H](CCl)[C@@H](O)[C@@H]2O)[C@H](O)[C@@H](O)[C@H]1Cl [Sample 17, 4,1′,6′-trichloro-4,1′,6′-trideoxy-galactosucrose] | – |
| 7 | −0.02 | – | – | – | OC[C@H]1O[C@H](O[C@]2(CCl)O[C@H](CCl)[C@@H](O)[C@@H]2O)[C@H](O)[C@@H](O)[C@H]1Cl [Sample 39, 4,1′,6′-trichloro-4,1′,6′-trideoxy-galactosucrose] | Days to pH Failure (Final Product Moisture Content): 7 Days; Days to pH Failure (Initial Moisture Content): 13 Days |
| – | – | 6 | 6.03 | +0.05 | OC[C@H]1O[C@H](O[C@]2(CCl)O[C@H](CCl)[C@@H](O)[C@@H]2O)[C@H](O)[C@@H](O)[C@H]1Cl [Sample 25, 4,1′,6′-trichloro-4,1′,6′-trideoxy-galactosucrose] | – |
| – | – | 6 | 5.72 | −0.20 | OC[C@H]1O[C@H](O[C@]2(CCl)O[C@H](CCl)[C@@H](O)[C@@H]2O)[C@H](O)[C@@H](O)[C@H]1Cl [Sample 1, 4,1′,6′-trichloro-4,1′,6′-trideoxy-galactosucrose] | – |
| 5 | −0.06 | – | – | – | OC[C@H]1O[C@H](O[C@]2(CCl)O[C@H](CCl)[C@@H](O)[C@@H]2O)[C@H](O)[C@@H](O)[C@H]1Cl [Sample 37, 4,1′,6′-trichloro-4,1′,6′-trideoxy-galactosucrose] | Days to pH Failure (Final Product Moisture Content): 5 Days; Days to pH Failure (Initial Moisture Content): 21 Days |
| 4 | −0.94 | – | – | – | OC[C@H]1O[C@H](O[C@]2(CCl)O[C@H](CCl)[C@@H](O)[C@@H]2O)[C@H](O)[C@@H](O)[C@H]1Cl [Sample 33, 4,1′,6′-trichloro-4,1′,6′-trideoxy-galactosucrose] | stability at intermediate moisture contents compared with final moisture levels: less stable at intermediate moisture contents (3 to 5%) than they were at their final moisture levels |
| – | – | 6 | 6.00 | +0.07 | OC[C@H]1O[C@H](O[C@]2(CCl)O[C@H](CCl)[C@@H](O)[C@@H]2O)[C@H](O)[C@@H](O)[C@H]1Cl [Sample 18, 4,1′,6′-trichloro-4,1′,6′-trideoxy-galactosucrose] | – |
| 5 | +0.17 | – | – | – | OC[C@H]1O[C@H](O[C@]2(CCl)O[C@H](CCl)[C@@H](O)[C@@H]2O)[C@H](O)[C@@H](O)[C@H]1Cl [Sample 42, 4,1′,6′-trichloro-4,1′,6′-trideoxy-galactosucrose] | Days to pH Failure (Final Product Moisture Content): 5 Days; Days to pH Failure (Initial Moisture Content): 9 Days |
| – | – | – | – | – | OC[C@H]1O[C@H](O[C@]2(CCl)O[C@H](CCl)[C@@H](O)[C@@H]2O)[C@H](O)[C@@H](O)[C@H]1Cl [Sample 47, 4,1′,6′-trichloro-4,1′,6′-trideoxy-galactosucrose] | Ph Stability [4]: 33 days; Ph Stability [5]: 4 days |
| 3 | −1.03 | – | – | – | OC[C@H]1O[C@H](O[C@]2(CCl)O[C@H](CCl)[C@@H](O)[C@@H]2O)[C@H](O)[C@@H](O)[C@H]1Cl [Sample 34, 4,1′,6′-trichloro-4,1′,6′-trideoxy-galactosucrose] | stability at intermediate moisture contents compared with final moisture levels: less stable at intermediate moisture contents (3 to 5%) than they were at their final moisture levels |
| – | – | 5 | 6.02 | +0.03 | OC[C@H]1O[C@H](O[C@]2(CCl)O[C@H](CCl)[C@@H](O)[C@@H]2O)[C@H](O)[C@@H](O)[C@H]1Cl [Sample 24, 4,1′,6′-trichloro-4,1′,6′-trideoxy-galactosucrose] | Ph Stability [4]: 8 days; Ph Stability [5]: 4 days; Ph Stability (package WHIRLPAK Polyethylene, moderately permeable): 5 days |
| – | – | 6 | 6.06 | +0.13 | OC[C@H]1O[C@H](O[C@]2(CCl)O[C@H](CCl)[C@@H](O)[C@@H]2O)[C@H](O)[C@@H](O)[C@H]1Cl [Sample 19, 4,1′,6′-trichloro-4,1′,6′-trideoxy-galactosucrose] | – |
| – | – | 4 | 5.53 | −0.39 | OC[C@H]1O[C@H](O[C@]2(CCl)O[C@H](CCl)[C@@H](O)[C@@H]2O)[C@H](O)[C@@H](O)[C@H]1Cl [Sample 6, 4,1′,6′-trichloro-4,1′,6′-trideoxy-galactosucrose] | – |
| – | – | 5 | 5.70 | −0.22 | OC[C@H]1O[C@H](O[C@]2(CCl)O[C@H](CCl)[C@@H](O)[C@@H]2O)[C@H](O)[C@@H](O)[C@H]1Cl [Sample 7, 4,1′,6′-trichloro-4,1′,6′-trideoxy-galactosucrose] | – |
| 5 | +0.40 | – | – | – | OC[C@H]1O[C@H](O[C@]2(CCl)O[C@H](CCl)[C@@H](O)[C@@H]2O)[C@H](O)[C@@H](O)[C@H]1Cl [Sample 41, 4,1′,6′-trichloro-4,1′,6′-trideoxy-galactosucrose] | Days to pH Failure (Final Product Moisture Content): 5 Days; Days to pH Failure (Initial Moisture Content): 12 Days |
| – | – | 5 | 5.95 | −0.02 | OC[C@H]1O[C@H](O[C@]2(CCl)O[C@H](CCl)[C@@H](O)[C@@H]2O)[C@H](O)[C@@H](O)[C@H]1Cl [Sample 30, 4,1′,6′-trichloro-4,1′,6′-trideoxy-galactosucrose] | – |
| – | – | 6 | 6.05 | +0.10 | OC[C@H]1O[C@H](O[C@]2(CCl)O[C@H](CCl)[C@@H](O)[C@@H]2O)[C@H](O)[C@@H](O)[C@H]1Cl [Sample 11, 4,1′,6′-trichloro-4,1′,6′-trideoxy-galactosucrose] | – |
| 5 | +0.29 | – | – | – | OC[C@H]1O[C@H](O[C@]2(CCl)O[C@H](CCl)[C@@H](O)[C@@H]2O)[C@H](O)[C@@H](O)[C@H]1Cl [Sample 43, 4,1′,6′-trichloro-4,1′,6′-trideoxy-galactosucrose] | Days to pH Failure (Final Product Moisture Content): 5 Days; Days to pH Failure (Initial Moisture Content): 8 Days |
